Laboratory results published in patent US4829061A, “1-(4-Hydroxy-3,5-di-tert.-butylbenzoyl)homopiperazine, various derivatives thereof, processes for the preparation of these compounds, medicaments containing them, and their use” (Hoechst Aktiengesellschaft, priority 1987, dated 1989).

How the values were obtained:
[1] = Determination of toxicity in the rat, 14 days (weight gain); format: in vivo, rat (male and female Wistar); conditions: 50 or 75 mg/kg p.o. each day for 14 days
Experimental: (§1) The antiinflammatory effect of the compounds of the formula I, according to the invention, was tested on adjuvant arthritis, and the effect on forms of rheumatic disorders having a severe course (chronic graft-versus-host diseases and autoimmune diseases mediated by immune complexes) was tested on the chronic graft-versus-host (cGvH) reaction in the mouse and in the reverse passive Arthus reaction in the rat in accordance with the animal models described below. The tolerability was determined by determining the toxicity in rats, namely by continuous administration for 14 days.
Groups of 10 male and female Wistar rats were fed each day for a period of 14 days with 50 or 75 mg/kg p.o., and were weighed every 2 days. The experiment was terminated after 14 days, and the weight gain was determined. The same number of rats not treated with the products acted as controls. […] This is regarded as a critical parameter for the tolerability of a compound.

[2] = test system: adjuvant-induced arthritis in the rat; test: Adjuvant arthritis (method of Pearson), paw volume; format: in vivo, rat (male, Wistar-Lewis strain); conditions: 50 mg/kg p.o. once a day, day 1 to 5; reduction in increase in paw volume vs control
Experimental: as §1
The investigations were carried out by the method of Pearson (Arthrit. Rheum. 2 (1959) page 44). The test animals used were male rats of a Wistar-Lewis strain with a body weight between 130 and 200 g. The compounds to be tested were administered orally (p.o.) in doses of 50 mg per kg of body weight once a day from the 1st to the 5th day of the experiment. The animals in a control group received only the vehicle. Each product and control group comprised 8 animals. The criterion used for an effect was the percentage reduction in the increase in paw volume compared with that in the untreated control group.

[3] = test system: reverse passive Arthus reaction; test: Reverse passive Arthus reaction in the rat; format: in vivo, rat (female and male Sprague-Dawley); conditions: 1 hour before induction, paw volume 4 hours after ovalbumin challenge
Experimental: as §1
The experimental animals used were female and male Sprague-Dawley rats with a body weight between 80 and 100 g. The rats were divided into groups each comprising 8 animals. 1 hour before the Arthus reaction was induced by injection of 0.1 ml of an anti-rat IgG solution (0.6 mg/ml) into the right rear paw, the particular test substance or the pure vehicle (positive controls) was administered orally. Sodium chloride solution was injected into the left paw. A group of non-sensitized animals (negative controls) was likewise treated with ovalbumin in order to be able to rule out non-specific reactions to the protein. The parameter used to measure the action of the products was the percentage change in the increase in paw volume compared with that in the control group (positive controls) which, although sensitized, was untreated, 4 hours after the ovalbumin challenge, when the swelling had reached its maximum.

cGvH disease = test: Chronic graft-versus-host (cGvH) reaction in the mouse; format: in vivo, mouse (female (DBA/2×C57Bl/6)F1); conditions: 6 weeks from day 21
Experimental: as §1
The features of graft-versus-host disease, which is based on an immune reaction originating from the transplant and directed against the host tissue, are, in the form having an acute course which almost always ends fatally, enlargement of the spleen, hepatomegaly, lymph node hypertrophy, hemolytic anemia, low immunoglobulin and complement levels, and diminished immunoreactivity. The chronic form of the disease, which has a somewhat milder course, results in lymphadenopathy, immune complex glomerulonephritis and excessive formation of non-organ-specific autoantibodies. The clinical picture of systemic lupus erythematosus (SLE), which is likewise one of the autoimmune diseases, has similar features.
Investigation of the compounds used according to the invention on the course of the cGvH disease induced in response to two injections of spleen and thymus cells, mixed together, in female mice of the (DBA/2×C57Bl/6)F1 generation was carried out by the design of experiment described by S. Popovic and R. R. Bartlett (Agents and Actions 21 (1987), 284-286), with intravenous administration, at a time interval of 7 days, of, in each case, 5×10^7 DBA/2 cells, likewise obtained from female donor animals, in 0.2 ml of culture medium. For reliable assessment of the course and appearance of the disease, a group of healthy animals was included as negative controls in all the experiments. The 6-week oral treatment of the animals with the disease took place from day 21 after the first donor cell injection, with administration once a day of the test substance or the pure vehicle (positive controls). […]
The action of the product was assessed on the basis of the inhibition of proteinuria and the cGvH index. The animals with the disease develop, as a consequence of the damage to nephrons due to deposition of immune complexes on the basement membranes of the glomeruli, a pronounced proteinuria which correlates with the extent of the glomerulonephritis and can easily be quantified by the increase in the amount of protein excreted with the urine. The second measured parameter, the cGvH index, is based on the great enlargement of the spleen (splenomegaly) caused by the cGvH reaction. […]

**Q.** With `CC(C)(C)c1cc(C(=O)N2CCCNCC2)cc(C(C)(C)C)c1O` [Example 2, 1-(4-Hydroxy-3,5-di-tert.-butylbenzoyl)homopiperazine] as the molecule, how does the “change in the weights (weight gain)” value [1] read?
**A.** The value was “no significant change in the weights”.

**Q.** And the “% inhibition in paw volume day 5” value [2]?
**A.** The value was 34%.

**Q.** And the “Reverse passive Arthus reaction, % inhibition” value ([3]; 20 mg/kg p.o.)?
**A.** Its value is 28%.

**Q.** What about the “Reverse passive Arthus reaction, % inhibition” value ([3]; 25 mg/kg p.o.) of the same molecule?
**A.** The value was 37%.

**Q.** What does the source list for `CC(C)(C)c1cc(C(=O)N2CCCN(C(=O)OCc3ccccc3)CC2)cc(C(C)(C)C)c1O` [Example 1, 1-(4-Hydroxy-3,5-di-tert.-butylbenzoyl)-4-benzyloxycarbonylhomopiperazine]?
**A.** change in the weights (weight gain) [1]: no significant change in the weights; % inhibition in paw volume day 5 [2]: 25%; % inhibition Proteinuria (cGvH disease; 5 mg/kg/day p.o.): 100%; % inhibition cGvH index (cGvH disease; 5 mg/kg/day p.o.): 57%; % inhibition Proteinuria (cGvH disease; 20 mg/kg/day p.o.): 80%; % inhibition cGvH index (cGvH disease; 20 mg/kg/day p.o.): 75%; Reverse passive Arthus reaction, % inhibition ([3]; 100 mg/kg p.o.): 25%
